Experiments:
[1] = target: T1, fibrinogen (BAC-2) solution (Homo sapiens, UniProt P02671+P02675+P02679); assay: Qualitative rate of gelation of BAC-2 (fibrinogen) solution with active ester cross-linker; details: weight ratio cross-linker to fibrinogen 1:1, fibrinogen approx. 70 mg/ml, room temperature
T1 construct: Powdered BAC-2, a blood plasma derived product was obtained from Omrix BioPharmaceuticals; purchased Omrix BioPharmaceuticals; host or cells: blood plasma
T1 sequence (P02671 20-629 limits assumed): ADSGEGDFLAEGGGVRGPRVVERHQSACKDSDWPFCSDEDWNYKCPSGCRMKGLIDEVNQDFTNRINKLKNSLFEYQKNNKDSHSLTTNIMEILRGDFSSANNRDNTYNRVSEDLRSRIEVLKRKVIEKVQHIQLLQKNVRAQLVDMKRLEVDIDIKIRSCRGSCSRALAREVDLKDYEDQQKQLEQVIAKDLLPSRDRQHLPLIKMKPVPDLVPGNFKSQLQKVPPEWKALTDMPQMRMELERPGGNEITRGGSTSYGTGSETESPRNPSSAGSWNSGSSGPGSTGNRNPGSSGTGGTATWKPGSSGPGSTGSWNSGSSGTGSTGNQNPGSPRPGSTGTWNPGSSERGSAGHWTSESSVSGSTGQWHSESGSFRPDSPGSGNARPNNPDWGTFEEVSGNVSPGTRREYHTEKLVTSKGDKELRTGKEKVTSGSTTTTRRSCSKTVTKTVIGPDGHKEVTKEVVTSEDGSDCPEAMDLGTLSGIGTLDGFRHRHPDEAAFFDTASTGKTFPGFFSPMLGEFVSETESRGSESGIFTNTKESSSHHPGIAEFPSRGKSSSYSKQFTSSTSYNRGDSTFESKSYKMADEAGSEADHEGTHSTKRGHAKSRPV
T1 sequence (P02675 31-491): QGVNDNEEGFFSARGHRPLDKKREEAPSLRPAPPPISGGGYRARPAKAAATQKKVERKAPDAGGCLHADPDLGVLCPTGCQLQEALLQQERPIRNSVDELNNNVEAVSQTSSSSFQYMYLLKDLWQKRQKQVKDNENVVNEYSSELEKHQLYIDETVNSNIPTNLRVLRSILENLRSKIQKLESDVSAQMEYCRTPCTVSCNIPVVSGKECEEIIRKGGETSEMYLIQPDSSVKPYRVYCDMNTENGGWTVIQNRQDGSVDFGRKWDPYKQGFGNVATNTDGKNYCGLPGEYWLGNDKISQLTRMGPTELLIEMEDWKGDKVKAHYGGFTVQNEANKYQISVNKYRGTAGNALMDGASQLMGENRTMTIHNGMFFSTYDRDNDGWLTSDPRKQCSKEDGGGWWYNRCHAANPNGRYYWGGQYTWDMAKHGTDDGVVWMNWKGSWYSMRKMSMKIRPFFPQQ
T1 sequence (P02679 27-433 limits assumed): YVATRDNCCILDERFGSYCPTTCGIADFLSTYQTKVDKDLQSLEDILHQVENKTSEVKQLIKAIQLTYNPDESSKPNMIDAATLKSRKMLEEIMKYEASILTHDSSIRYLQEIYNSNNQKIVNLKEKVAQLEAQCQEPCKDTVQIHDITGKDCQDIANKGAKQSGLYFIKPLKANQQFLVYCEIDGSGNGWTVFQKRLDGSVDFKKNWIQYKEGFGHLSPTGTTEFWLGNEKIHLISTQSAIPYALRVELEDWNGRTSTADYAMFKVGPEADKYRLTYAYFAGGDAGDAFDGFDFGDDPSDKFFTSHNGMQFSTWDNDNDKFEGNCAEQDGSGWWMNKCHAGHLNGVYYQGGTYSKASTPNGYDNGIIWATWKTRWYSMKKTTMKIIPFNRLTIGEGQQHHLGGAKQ
Experimental: Sealants based on the inventive compositions were prepared by using an aqueous solution of BAC-2 (about 7% fibrinogen, or 70 mg/ml) where the crosslinking agent in the form of a powder was added at a selected composition and mixed well for 1 to 2 minutes up to gellation.
Crosslinking agents A, B, C correspond to the instant invention, while D and E correspond to control groups. The solid NHS ester, preferably in a powder form, was added to the BAC-2 solution at room temperature in a test tube at a weight ratio of 1 to 1 for active ester to fibrinogen, and mixed well. The time for gelation, defined qualitatively as the point when the BAC-2 solution in the test tube no longer flowed, was noted and recorded as shown in Table 2.
Sealants were prepared using an aqueous solution of fibrinogen (about 7% solution), where powder of either T-DG-N or PEG-DG-N was added at a selected composition based on the fibrinogen content. […] The in vitro rate of degradation of the hydrogel (or sealant) was determined in an enzymatic medium of plasmin at a concentration of 3.3 microgram/ml by determining the % clot remaining by gravimetric method after a given duration of exposure.

[2] = Hydrolysis of NHS active esters in D2O monitored by NMR; format: physicochemical; details: in D2O at 25° C.; for Estimated Time for 10% Hydrolysis / Estimated Time for 95% Hydrolysis: NMR; for k = Constant in % Hydrolysis, y = k Exp(−mx) / m = Relative Rate in % Hydrolysis, y = k Exp(−mx): x = Time
Experimental: The relative reactivity of the active esters was determined by monitoring the rate of hydrolytic degradation in D2O at room temperature by NMR as shown in FIG. 4.
Various NHS active esters shown in FIG. 4 are the 4-Arm-TKHEED-Diglycolate-NHS (T-Dig-NHS or T-DG-N), the 4-Arm-Quadrol-Diglycolate-NHS (Q-Dig-NHS or Q-DG-N), the 4-Arm-PEG-Diglycolate-NHS (PEG-Dig-NHS or PEG-DG-N), the 4-Arm-TKHEED-Glutarate-NHS (T-Glut-NHS or T-Glut-N), and the 2-Arm-PEG-Diacid-NHS (PEG-NHS). It was observed that diglycolate-containing esters are the fastest hydrolyzing active esters, meaning to hydrolyze more than 95% in about 30 to 60 minutes irrespective of the core structure. […] These compounds appear to hydrolyze only about 10% or less in about 80 to 100 minutes.
Hydrolysis degradation parameters are summarized in Table 1 qualitatively from the chart in FIG. 4. It is observed that the Relative Rate, m, (in the exponential equation) for all the Diglycolate-NHS esters are within about 20% of each other. However, the rates are much faster than the others; for example, T-Dig-NHS (or T-DG-N) is 144 times faster than T-Glut-NHS, and 98 times faster than PEG-NHS. The degradation profiles of cross-linker A (T-DG-NHS), B (Q-Dig-NHS) and C (PEG-Dig-NHS) correspond to the instant invention, while the crosslinking agent D (T-Glut-NHS) and E (PEG-NHS) correspond to control groups.

[3] = Hydrolytic degradation of sealant in de-ionized water at 37° C. by pH profiling; format: physicochemical; details: deionized water 37° C., constant pH 7.4
Experimental: Sealant with ester links undergoing hydrolytic degradation in PBS at 37° C. was evaluated by the % weight loss method. Sealant degradation in de-ionized (DI) water causes the pH level of the solution to […], which can be titrated by addition of a basic compound to maintain a constant pH of 7.4 at 37° C. until such time that no more basic compound was needed to maintain a neutral solution; the total time for titration was noted.
As the Diglycolate-NHS/BAC-2 system is a hydrogel of fibrinogen with ester based cross-links, its degradation was followed in the pH profiler of de-ionized water at 37° C., where a base was added to neutralize the acid formed upon ester hydrolysis with time, to maintain a constant neutral pH. Cross-linker weight % was varied based on fibrinogen content.

[4] = Water solubility of diglycolate-NHS esters; format: physicochemical

4-Arm-TKHEED-Glutarate-NHS [T-Glut-NHS, reference compound]
Qualitative observation of Gelation [1]: 30 to 60 min | Estimated Time for 10% Hydrolysis [2]: 100 min | k = Constant in % Hydrolysis, y = k Exp(−mx) [2]: 65 | m = Relative Rate in % Hydrolysis, y = k Exp(−mx) [2]: 0.00072

O=C(COCC(=O)ON1C(=O)CCC1=O)OCCN(CCOC(=O)COCC(=O)ON1C(=O)CCC1=O)CCN(CCOC(=O)COCC(=O)ON1C(=O)CCC1=O)CCOC(=O)COCC(=O)ON1C(=O)CCC1=O [T-DG-N, 4-Arm TKHEED-tetra Diglycolate-tetra-NHS ester]
Longevity of sealant, Avg. ([3]; NHS cross-linker 30 wt % based on fibrinogen): 2.7 days | Longevity of sealant, Avg. ([3]; NHS cross-linker 50 wt % based on fibrinogen): 7.1 days | Longevity of sealant, Avg. ([3]; NHS cross-linker 60 wt % based on fibrinogen): 16.7 days | Qualitative observation of Gelation [1]: 1 to 2 min | water solubility [4]: more than 85% | hydrolysis rate, times faster than PEG-NHS [2]: 98 times | hydrolysis rate, times faster than T-Glut-NHS [2]: 144 times | Estimated Time for 95% Hydrolysis [2]: 30 min | k = Constant in % Hydrolysis, y = k Exp(−mx) [2]: 62 | m = Relative Rate in % Hydrolysis, y = k Exp(−mx) [2]: 0.104

4-Arm-Quadrol-Diglycolate-NHS [Q-DG-N]
Qualitative observation of Gelation [1]: 1 to 2 min | water solubility [4]: about 25% | Estimated Time for 95% Hydrolysis [2]: 60 min | k = Constant in % Hydrolysis, y = k Exp(−mx) [2]: 107 | m = Relative Rate in % Hydrolysis, y = k Exp(−mx) [2]: 0.084

O=C(CCOCCOCCOCCOCCOCCOCCOCCOCCOCCC(=O)ON1C(=O)CCC1=O)ON1C(=O)CCC1=O [PEG-NHS, Bis-dPEG(9)-NHS ester, reference compound]
Qualitative observation of Gelation [1]: 15 to 30 min | Estimated Time for 10% Hydrolysis [2]: 80 min | k = Constant in % Hydrolysis, y = k Exp(−mx) [2]: 98 | m = Relative Rate in % Hydrolysis, y = k Exp(−mx) [2]: 0.00106

From patent US8846849B2, “Tissue sealants from plasma derived proteins” (Ethicon, Inc., priority 2011, dated 2014)
